From patent publication US4436662A, “Pyrrolo[3,4-d][2]benzazepinones” (Hoffmann-La Roche Inc., priority 1983, dated 1984) come the findings set out here.

Series [1] deals with 3H-Diazepam binding, rat brain cortical fragments. The experiment in a line: 3H-Diazepam Binding Assay. As to conditions: read-out: IC50 (nM), concentration required to inhibit binding by 50%, Tris buffer, assayed in triplicate. On the procedure: Brief-Description: Rat brain cortical fragments are prepared and the binding procedures performed as described by Mohler and Okada (Life Sciences, 20, 2101, 1977) except that Tris buffer is substituted for Krebs buffer. Drugs are assayed in triplicate.
Measurements Made: Radioactivity is measured by liquid scintillation counting.

In series [2] the test system is convulsions (metrazol iv). As to the kind of experiment: Intravenous Antimetrazol Test. The series is classed as in vivo, Male CF-1 mice. To be noted: Mus musculus, po, 1 h. On the procedure: Intravenous Antimetrazol Test
Brief Description: Male CF-1 mice, 45-54 days old, housed in facilities for one week and food-deprived for about 24 hours, are used in this test. The test compound, dispersed in 5% acacia, is administered orally to three mice at 1/10 the dose at which lethality occurred in the TSP testing. One hour later, metrazol is administered intravenously at 70 mg/kg (convulsant dose 100 mg/kg) and animals are observed 30 seconds for protection against convulsions. If the compound is active orally, 3 animals are used per dose level.
Measurements Made: The number of animals protected from convulsions.
Calculations: If the drug is active and three mice are used per dose level, the approximate ED50 is calculated by the method of Miller and Tainter (Proc. Soc. Exp. Biol. Med. 57:261, 1944). If six or more mice are used per dose level, the ED50 values and 95% fiducial limits are calculated using a computer program based on the method of D. J. Finney ("Probit Analysis", Cambridge University Press, Cambridge, England, 1971).

The nature of series [3]: LD50 (po) acute lethality. Also on record: species or system mice. To be noted: mouse, in vivo.
Where [4] appears, read: 1 hour before metrazol 70 mg/kg iv, 50% of animals protected from convulsive seizures, test compounds, read-out: ED50.
[5] abbreviates: mice, printed in binding results table.
The mark [6] stands for this setting: printed in antimetrazol results table.
[7] abbreviates: standard drugs, read-out: ED50 (95% Fiducial Limits).

Like-named read-outs stand apart in the source and are kept apart here.

For the molecule `CC1NC(=O)C2=C1c1ccc(Cl)cc1C(c1ccccc1Cl)=NC2` (centres unmarked) [8-Chloro-6-(2-chlorophenyl)-1,4-dihydro-1-methylpyrrolo[3,4-d][2]benzazepin-3(2H)-one], the IC50 in series [1] worked out at 1 nM. The ED50 (commonly the dose at which the effect has come halfway, by size or by number of responders) in series [2] (setting [4]) is 0.08 mg/kg. Also, the LD50 in series [3] (setting [5]) and in series [3] (setting [6]) was above 1000 mg/kg throughout.

With `CN1CC2=C(CN=C(c3ccccc3Cl)c3cc(Cl)ccc32)C1=O` [8-chloro-6-(2-chlorophenyl)-1,4-dihydro-2-methylpyrrolo[3,4-d][2]benzazepin-3(2H)-one], the ED50 in series [2] (setting [4]) is 0.08 mg/kg. In addition, the LD50 in series [3] (setting [5]) and in series [3] (setting [6]) was 800 mg/kg throughout.

On to `CNC1=Nc2ccc(Cl)cc2C(c2ccccc2)=[N+]([O-])C1` [Chlordiazepoxide], for which, in series [2] (setting [7]), the median effective dose (ED50) is 3.9 mg/kg.

With `CN1C(=O)CN=C(c2ccccc2)c2cc(Cl)ccc21` [Diazepam], the ED50 in series [2] (setting [7]) is 1 mg/kg.

Turning to `CCN(CC)CCN1C(=O)CN=C(c2ccccc2F)c2cc(Cl)ccc21` [Flurazepam, reference compound], the IC50 in series [1] is 15.6 nM.

As for `CCC1(c2ccccc2)C(=O)NC(=O)NC1=O` [Sodium Phenobarbital], the ED50 in series [2] (setting [7]) is 19 mg/kg.
